Assay results as given in US12104176B2, “Efficient cell culture system for hepatitis C virus genotype 6A” (priority 2018, dated 2024).
Like-named read-outs stand apart in the source and are kept apart here. Marks after values point to notes of the source that are not given here.

How the values were obtained:
TN (1a) = assay: Concentration-response treatment of infected Huh7.5 cells, TN (1a) control virus; details: Hepatitis C virus, Huh7.5, read-out: EC50, nM (95% CI), TN (1a)
Description: (§1) Huh7.5 cells were seeded in 96-well plates and then infected with the indicated viruses. TN (1a) was used as a comparative control. 24 h after infection, cells were treated with the indicated NS5A inhibitor for 48 h. Values are means of triplicates±SEM. Concentration-response curves were calculated as previously described^26.
(§2) All concentration-response treatment experiments were performed using established methods^16,18,26. For half-maximal effective concentration (EC50) value calculations, a sigmoidal concentration-response curve was fitted using GraphPad Prism 6^18,26.

HK6a (6a) = assay: Concentration-response treatment of infected Huh7.5 cells, HK6a full-length virus; details: for EC50: Hepatitis C virus, Huh7.5, read-out: EC50, nM (95% CI), HK6a (6a); for Fold to TN, HK6a (6a): fold change in EC50 compared to TN
Description: as §1, §2

HK2 (6a) = details: for EC50: Hepatitis C virus, Huh7.5, read-out: EC50, nM (95% CI), HK2 (6a); for Fold to TN, HK2 (6a): fold change in EC50 compared to TN
Description: as §1, §2

[1] = system: HK6a-SOFesc, S282T (NS5B); assay type: cell-based, HCV genotype 6a; details: HK6a-SOFesc vs original HK6a
HK2-VELesc, L31V (NS5A) = assay type: cell-based, HCV genotype 6a; details: HK2-VELesc vs original HK2
HK6a-VELesc, L31V (NS5A) = assay type: cell-based, HCV genotype 6a; details: HK6a-VELesc vs original HK6a
[2] = system: HK6a-VELesc/PIB(10 nM)esc, L28S + L31V (NS5A); assay type: cell-based, HCV genotype 6a; details: HK6a-VELesc/PIB(10 nM)esc (L28S+L31V) vs original HK6a
[3] = system: HK6a-SOFesc/VELesc, S282T (NS5B)/L28S (NS5A); assay type: cell-based, HCV genotype 6a; details: HK6a-SOFesc/VELesc (L28S) vs original HK6a
[4] = system: HK6a velpatasvir escape virus harboring NS5A-L31V; assay type: cell-based; details: pibrentasvir 0.3, 3 and 10 nM
[5] = system: HK6a full-length virus (original); details: for day from which no HCV-antigen positive cells were detectable: HK6a original virus; for outcome of long-term treatment (resistance selection) / outcome of long-term treatment: HK6a; for outcome of long-term treatment: velpatasvir (10 nM) and sofosbuvir (570 nM), individually or combined
Description: Long-term treatment was performed for HK6a viruses as described in Materials and Methods. (A): Percentage HCV-antigen positive cells determined by evaluation of Core/NS5A-antigen positive versus total number of cells during treatment (y-axis) at the indicated time points (x-axis) (top panel). […] Changes in HCV RNA levels (y-axis) related to day 0 (treatment initiated), were determined from supernatants at corresponding time-points (x-axis) (bottom panel)^18. (B-D): Combination treatment of sofosbuvir (570 nM) and different concentrations of velpatasvir [0.1(10x−EC50), 1(100x−EC50), 10(1000x−EC50) nM], were performed with HK6a escape viruses compared with original viruses.
For long-term DAA treatments, Huh7.5 cells were infected with second-passage supernatants of HK2(H77_3′XSLI)-17m or HK6a(FL)-12m viruses (Table 1, FIG. 1F). […] Treatments were carried out in T25 flasks, and drugs were diluted in medium at the indicated concentration. Drugs were added every 2-3 days when cells were split. HCV RNA levels were determined using supernatants collected at indicated time points as described^18. The percentage of HCV positive cells, at indicated time-points, was determined by immunostaining, and supernatants were collected and stored at −80° C. for further analysis. At day 25 after initiation of treatment, cultures with no detectable HCV positive cells were divided into 2 flasks, and one of the replicates was cultured without drug. These untreated cultures were followed for 2 weeks and if no HCV positive cells were detected by immunostaining, the infection was considered cleared.

[6] = system: HK6a-VELesc/PIB(3 nM)esc, V21A + L28S + L31V (NS5A); assay type: cell-based, HCV genotype 6a; details: HK6a-VELesc/PIB(3 nM)esc vs original HK6a
HK2-SOFesc, S282T (NS5B) = assay type: cell-based, HCV genotype 6a; details: HK2-SOFesc vs original HK2
[7] = system: escape viruses with RAS NS5B-S282T (HK2 and HK6a); assay type: cell-based, HCV genotype 6a; details: escape viruses generated in drug-free cultures, FIGS. 4A, B
[8] = system: HK2cc recombinant viruses with NS5B-S282T
HK2cc = assay: microbe, parasite or virus in culture; assay type: cell-based; details: Hepatitis C virus; HK2cc in separate experiment of FIG. 4
[9] = system: velpatasvir escape viruses of HK2 and HK6a (NS5A-L31V); assay type: cell-based, HCV genotype 6a; details: drug-free passage stocks of HK2 and HK6a escape viruses, FIG. 3A
[10] = Huh7.5 cells, treated 24 h after infection for 48 h, ni = not inhibited at highest concentration used

COc1ccc2c(c1)[C@@H]1C[C@]1(C(=O)N1[C@@H]3CC[C@H]1CN(C)C3)Cn1c-2c(C2CCCCC2)c2ccc(C(=O)NS(=O)(=O)N(C)C)cc21 [Beclabuvir]
EC50 (TN (1a)): 5.3 nM | EC50 (HK6a (6a)): 34.1 nM | Fold to TN, HK6a (6a) (HK6a (6a)): 6.4 fold | EC50 (HK2 (6a)): 28.1 nM | Fold to TN, HK2 (6a) (HK2 (6a)): 5.3 fold

COC(=O)N[C@H](C(=O)N1CCC[C@H]1c1nc(-c2ccc(-c3ccc(-c4c[nH]c([C@@H]5CCCN5C(=O)[C@@H](NC(=O)OC)C(C)C)n4)cc3)cc2)c[nH]1)C(C)C [Daclatasvir]
EC50 (TN (1a)): 0.019 nM | EC50 (HK6a (6a)): 0.014 nM

COc1c(-c2ccc3cc(NS(C)(=O)=O)ccc3c2)cc(-n2ccc(=O)[nH]c2=O)cc1C(C)(C)C [Dasabuvir]
EC50 (TN (1a)): 35.5 nM | EC50 (HK6a (6a)): 434 nM | Fold to TN, HK6a (6a) (HK6a (6a)): 12.2 fold | EC50 (HK2 (6a)): 267 nM | Fold to TN, HK2 (6a) (HK2 (6a)): 7.5 fold

COC(=O)N[C@H](C(=O)N1CCC[C@H]1c1nc(-c2ccc3c(c2)O[C@@H](c2ccccc2)n2c-3cc3cc(-c4c[nH]c([C@@H]5CCCN5C(=O)[C@@H](NC(=O)OC)C(C)C)n4)ccc32)c[nH]1)C(C)C [Elbasvir]
EC50 (TN (1a)): 0.006 nM | EC50 (HK6a (6a)): 0.009 nM | Fold to TN, HK6a (6a) (HK6a (6a)): 1.5 fold | EC50 (HK2 (6a)): 0.017 nM | Fold to TN, HK2 (6a) (HK2 (6a)): 2.8 fold

CNC(=O)c1c(-c2ccc(F)cc2)oc2cc(N(CCO)S(C)(=O)=O)c(C3CC3)cc12 [HCV-796]
EC50 (TN (1a)): 26 nM | EC50 (HK6a (6a)): 131 nM | Fold to TN, HK6a (6a) (HK6a (6a)): 5.0 fold | EC50 (HK2 (6a)): 24 nM | Fold to TN, HK2 (6a) (HK2 (6a)): 0.9 fold

COC(=O)N[C@H](C(=O)N1CC2(CC2)C[C@H]1c1nc(-c2ccc3c(c2)C(F)(F)c2cc(-c4ccc5[nH]c([C@@H]6[C@H]7CC[C@H](C7)N6C(=O)[C@@H](NC(=O)OC)C(C)C)nc5c4)ccc2-3)c[nH]1)C(C)C [Ledipasvir]
EC50 (TN (1a)): 0.005 nM | EC50 (HK6a (6a)): 0.346 nM | Fold to TN, HK6a (6a) (HK6a (6a)): 69.2 fold | EC50 (HK2 (6a)): 0.228 nM | Fold to TN, HK2 (6a) (HK2 (6a)): 45.6 fold

CC(C)(C)C#Cc1cc(N(C(=O)[C@H]2CC[C@H](C)CC2)[C@H]2CC[C@H](O)CC2)c(C(=O)O)s1 [Lomibuvir]
EC50 (TN (1a)): 27.6 nM | EC50 (HK6a (6a)): > 4000 nM | EC50, nM (95% CI), HK6a (6a) (HK6a (6a); [10]): ni | EC50 (HK2 (6a)): > 4000 nM | EC50, nM (95% CI), HK2 (6a) (HK2 (6a); [10]): ni

CC(C)OC(=O)[C@@H](C)N[P@@](=O)(OC[C@H]1O[C@@H](n2ccc(=O)[nH]c2=O)[C@](C)(Cl)[C@@H]1O)Oc1ccccc1 [MK-3682]
EC50 (TN (1a)): 392 nM | EC50 (HK6a (6a)): 522 nM | Fold to TN, HK6a (6a) (HK6a (6a)): 1.3 fold | EC50 (HK2 (6a)): 370 nM | Fold to TN, HK2 (6a) (HK2 (6a)): 0.9 fold

COC(=O)N[C@H](C(=O)N1CCC[C@H]1C(=O)Nc1ccc([C@@H]2CC[C@@H](c3ccc(NC(=O)[C@@H]4CCCN4C(=O)[C@@H](NC(=O)OC)C(C)C)cc3)N2c2ccc(C(C)(C)C)cc2)cc1)C(C)C [Ombitasvir]
EC50 (TN (1a)): 0.002 nM | EC50 (HK6a (6a)): 2.2 nM | Fold to TN, HK6a (6a) (HK6a (6a)): 1100.0 fold | EC50 (HK2 (6a)): 0.6 nM | Fold to TN, HK2 (6a) (HK2 (6a)): 300.0 fold

COC(=O)N[C@H](C(=O)N1CCC[C@H]1c1nc2cc([C@H]3CC[C@H](c4cc5nc([C@@H]6CCCN6C(=O)[C@@H](NC(=O)OC)[C@@H](C)OC)[nH]c5cc4F)N3c3cc(F)c(N4CCC(c5ccc(F)cc5)CC4)c(F)c3)c(F)cc2[nH]1)[C@@H](C)OC [Pibrentasvir]
Fold-change EC50 to original virus [1]: 1 fold | Fold-change EC50 to original virus (HK2-VELesc, L31V (NS5A)): 1 fold | Fold-change EC50 to original virus (HK6a-VELesc, L31V (NS5A)): 1 fold | Fold-change EC50 to original virus [2]: 79.000 fold | Fold-change EC50 to original virus [3]: 250 fold | EC50 (TN (1a)): 0.004 nM | outcome of long-term treatment [4]: escaped the treatment at all concentrations | day from which no HCV-antigen positive cells were detectable ([5]; pibrentasvir 0.3 nM): 7 days | day from which no HCV-antigen positive cells were detectable ([5]; pibrentasvir 3 nM): 5 days | day from which no HCV-antigen positive cells were detectable ([5]; pibrentasvir 10 nM): 5 days | outcome of long-term treatment (resistance selection) ([5]; PIB 0.3 nM): Infection cleared | outcome of long-term treatment (resistance selection) ([5]; PIB 3 nM): Infection cleared | outcome of long-term treatment (resistance selection) ([5]; PIB 10 nM): Infection cleared | Fold-change EC50 to original virus [6]: 85.500 fold | EC50 (HK6a (6a)): 0.004 nM | Fold to TN, HK6a (6a) (HK6a (6a)): 1.0 fold | EC50 (HK2 (6a)): 0.002 nM | Fold to TN, HK2 (6a) (HK2 (6a)): 0.6 fold

CC(C)OC(=O)[C@H](C)N[P@](=O)(OC[C@H]1O[C@@H](n2ccc(=O)[nH]c2=O)[C@](C)(F)[C@@H]1O)Oc1ccccc1 [Sofosbuvir]
Fold-change EC50 to original virus [1]: ≥8^d fold | Fold-change EC50 to original virus (HK2-SOFesc, S282T (NS5B)): 7.9 fold | fold increase in EC50 [7]: ≥ 8 fold | EC50 (TN (1a)): 481 nM | fold lower sensitivity compared with HK2cc [8]: 3 to 5 fold | outcome of long-term treatment [5]: failed to fully suppress the infection | EC50 (HK6a (6a)): 513 nM | Fold to TN, HK6a (6a) (HK6a (6a)): 1.1 fold | EC50 (HK2 (6a)): 393 nM | Fold to TN, HK2 (6a) (HK2 (6a)): 0.8 fold | EC50 (HK2cc): 653 nM

COC[C@H]1C[C@@H](c2nc(-c3ccc4c(c3)COc3cc5c(ccc6nc([C@@H]7CC[C@H](C)N7C(=O)[C@@H](NC(=O)OC)C(C)C)[nH]c65)cc3-4)c[nH]2)N(C(=O)[C@H](NC(=O)OC)c2ccccc2)C1 [Velpatasvir]
Fold-change EC50 to original virus [1]: 1 fold | Fold-change EC50 to original virus (HK2-VELesc, L31V (NS5A)): 3066 fold | Fold-change EC50 to original virus (HK6a-VELesc, L31V (NS5A)): 2384 fold | Fold-change EC50 to original virus [2]: > 899.000 fold | Fold-change EC50 to original virus ([2]; listed as VEL): ≥899.214^d fold | Fold-change EC50 to original virus [3]: ~58.000 fold | Fold-change EC50 to original virus ([3]; listed as VEL): 58.105 fold | EC50 (TN (1a)): 0.005 nM | fold increase in EC50 in comparison with the pre-treatment virus [9]: 2- to 3 thousand | outcome of long-term treatment [5]: failed to fully suppress the infection | Fold-change EC50 to original virus [6]: ≥992.928^d fold | EC50 (HK6a (6a)): 0.011 nM | Fold to TN, HK6a (6a) (HK6a (6a)): 2.2 fold | EC50 (HK2 (6a)): 0.007 nM | Fold to TN, HK2 (6a) (HK2 (6a)): 1.4 fold
